The test system of one assay is TgHDAC3. The note with it: low doses, RH strain; cited from earlier work.
Assay [1] has as its system T. gondii-infected HFF cells. The experiment in a line: FR235222 treatment and induction of BCLA (proteomics, western blot, immunofluorescence). The format is cell-based, Toxoplasma gondii. As to the method:
Host cells and parasites culture. HFF primary cells (Bougdour et al., 2009), RAW264.7, L929, HCT116, A549 and HEK293 cells were cultured in Dulbecco's Modified eagle Medium (DMEM) (Thermo fischer Scientific, France) supplemented with 10% heat-inactivated fetal Bovine Serum (FBS) (Invitrogen), 10 mM (4-(2-hydroxyethyl)-1-piperazine ethanesulphonic acid) (HEPES) buffer pH 7.2, 2 mM L-glutamine and 50 μg/ml of penicillin and streptomycin (Thermo Fisher Scientific). Cells were incubated at 37° C. in 5% CO2. The following Toxoplasma strains were used in this study: type I (RH, GT1), type II (ME49), type III (CTG), atypical (COUG), Neospora caninum; RHΔku80 (Huynh and Carruthers, 2009), PruΔku80 (Fox et al., 2011), PruA7 (Saeij et al., 2007), COUGΔmyr1 (Hakimi, unpublished), PruΔku80Δbcla, PruΔku80-HF-BCLA and 76k-GFP-luc-Δbcla obtained in this study. All parasite strains were maintained in vitro by serial passage on monolayers of HFFs. T. gondii transfection. T. gondii RHΔku80, PruΔku80 and 76k-GFP-luc were electroporated with vectors in cytomix buffer (120 mM KCl, 0.15 mM CaCl2, 10 mM K2HPO4/KH2PO4, pH 7.6, 25 mM HEPES pH 7.6, 2 mM EGTA, 5 mM MgCl2) using a BTX ECM 630 machine (Harvard Apparatus). Electroporation was performed in a 2 mm cuvette at 1.100 V, 25Ω and 25 μF. Stable transgenic parasites were selected with 1 μM pyrimethamine, single-cloned in 96 well plates by limiting dilution and verified by immunofluorescence assay.
FR235222 treatment and induction. FR235222 was provided by Astellas Pharma Inc. (Osaka, Japan) and dissolved into DMSO as described by Bougdour et al., 2009 and the final concentration in culture medium was either 25 ng/mL or 50 ng/mL. The media containing FR235222 was added to infected HFF cells 16 hours after infection for 24 h to 7 days.
Immunofluorescence microscopy. Immunofluorescence assays on in vitro parasites were performed as described previously (Braun et al., 2013). In brief, T. gondii-infected HFF cells grown on coverslips or cysts purified from brains of mice were fixed in 3% formaldehyde for 20 min at room temperature, permeabilised with 0.1% (v/v) Triton X-100 for 15 min and blocked in phosphate-buffered saline (PBS) containing 3% (v/v) bovine serum albumin (BSA). For immunolabeling on histological sections of brains, the brain layers spotted on glass slides were first solvent-dewaxed using toluene for 3*10 min and absolute alcohol for 3*10 min. The slides were then treated with citrate buffer pH 6, heated at 100° C. during 1 hour, rinsed with water for 2*10 min and blocked in PBS containing 3% (v/v) bovine serum albumin (BSA). The cells or brain layers were then incubated for 1 hour with the primary antibodies indicated in the figures followed by the addition of secondary antibodies conjugated to Alexa Fluor 488 or 594 (Molecular Probes) at a 1:1,000 dilution for 1 hour. Nuclei of both host cells and parasites were stained for 10 min at room temperature with Hoechst 33258 at 2 μg/ml in PBS. Coverslips were mounted on a glass slide with Mowiol mounting medium, images were acquired with a fluorescence ZEISS ApoTome.2 microscope and images were processed by ZEN software (Zeiss).
Western Blot. Proteins were separated by SDS-PAGE and transferred to a polyvinylidene fluoride membrane (Immobilon-P; EMP Millipore) by liquid transfer, and Western blots were probed using appropriate primary antibodies followed by phosphatase-conjugated goat secondary antibodies (Promega). Signals were detected using NBT-BCIP (Amresco).
For orientation: A western blot detects proteins with antibodies after separation by electrophoresis.

As to FR235222, the “in vitro tachyzoite to bradyzoite stage conversion” value with TgHDAC3 is on record as “induces”. In addition, in assay [1] (FR235222 90 nM versus DMSO 0.1%, type II (PruΔku80) strain in primary human fibroblasts), the “BCLA protein induction (quantitative proteomics LC-MS/MS)” value is given as “significantly induced”. Also, the “BCLA signal intensity (western blot, ~140-kDa band)” value in assay [1] (FR235222 versus untreated tachyzoites) is recorded as “significantly increased”. Further, the “BCLA signal intensity upon FR235222 (immunofluorescence, per PV)” value in assay [1] (type I (GT1 and RHΔku80) and haplogroup 11 (COUG) strains) is on record as “rather moderate”; in assay [1] (type II (PruΔku80, ME49, 76K-GFP-Luc) strain), “very strong induction”; in assay [1] (type III (CTG) strain), “faint (if no) signal”.

Source of the values: US20220390449A1, “NEW S[…] FOR THE LATENT FORM OF TOXOPLASMOSIS” (INSERM (INSTITUT NATIONAL DE LA SANTÉ ET DE LA RECHERCHE …, priority 2019, published 2022).
